{"source": "paper PMC10382584", "about": "“Macrocyclization of linear molecules by deep learning to facilitate macrocyclic drug candidates discovery” (Nature Communications, 2023);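 note: KINOMEscan kinase panel binding assay, signal normalized between DMSO as 100% and a positive control compound as 0%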", "test_in_all_cases": "biochemical", "design_in_all_cases": "DiscoveRx KINOMEscan competition binding, percent of DMSO control signal at 100 nM", "settings_in_all_cases": "read-out: Fig. 4a / Percent Control / Compound 1; percent of DMSO control, competition binding", "key": {"ZAK": {"target": "T1, ZAK (Homo sapiens, UniProt Q9NYL2)", "T1 construct": "gene MAP3K20"}, "SRMS": {"target": "SRMS (Homo sapiens, UniProt Q9H3Y6)"}, "PRKX": {"target": "PRKX (Homo sapiens, UniProt P51817)", "sequence (P51817 whole entry)": "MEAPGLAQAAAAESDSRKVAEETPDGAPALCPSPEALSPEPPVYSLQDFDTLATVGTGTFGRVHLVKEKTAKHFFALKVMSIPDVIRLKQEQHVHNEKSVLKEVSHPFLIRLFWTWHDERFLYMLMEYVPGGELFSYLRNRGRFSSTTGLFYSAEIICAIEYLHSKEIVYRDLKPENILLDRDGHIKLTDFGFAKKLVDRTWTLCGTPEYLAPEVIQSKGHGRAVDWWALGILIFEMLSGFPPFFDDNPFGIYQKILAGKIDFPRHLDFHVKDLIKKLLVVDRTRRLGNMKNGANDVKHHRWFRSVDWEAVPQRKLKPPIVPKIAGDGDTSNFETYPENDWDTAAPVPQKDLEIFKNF"}, "RIOK3": {"target": "RIOK3 (Homo sapiens, UniProt O14730)", "sequence (O14730 whole entry)": "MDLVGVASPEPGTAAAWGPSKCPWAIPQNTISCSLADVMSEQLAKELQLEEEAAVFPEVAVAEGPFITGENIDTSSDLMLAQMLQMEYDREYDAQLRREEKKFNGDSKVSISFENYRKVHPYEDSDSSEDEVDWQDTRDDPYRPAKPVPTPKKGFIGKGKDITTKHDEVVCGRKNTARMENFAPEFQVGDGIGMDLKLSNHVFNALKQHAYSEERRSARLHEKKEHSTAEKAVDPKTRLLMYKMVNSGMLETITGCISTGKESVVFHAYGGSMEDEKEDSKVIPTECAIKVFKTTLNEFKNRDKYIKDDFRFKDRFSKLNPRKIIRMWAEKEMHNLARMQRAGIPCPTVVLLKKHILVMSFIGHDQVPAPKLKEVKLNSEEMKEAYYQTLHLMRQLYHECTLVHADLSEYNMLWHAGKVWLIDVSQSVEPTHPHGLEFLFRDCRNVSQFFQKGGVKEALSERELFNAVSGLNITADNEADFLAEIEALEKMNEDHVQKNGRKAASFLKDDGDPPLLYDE"}, "DLK": {"target": "T2, DLK (Homo sapiens, UniProt Q12852)", "T2 construct": "gene MAP3K12"}, "PLK4": {"target": "PLK4 (Homo sapiens, UniProt O00444)", "sequence (O00444 whole entry)": "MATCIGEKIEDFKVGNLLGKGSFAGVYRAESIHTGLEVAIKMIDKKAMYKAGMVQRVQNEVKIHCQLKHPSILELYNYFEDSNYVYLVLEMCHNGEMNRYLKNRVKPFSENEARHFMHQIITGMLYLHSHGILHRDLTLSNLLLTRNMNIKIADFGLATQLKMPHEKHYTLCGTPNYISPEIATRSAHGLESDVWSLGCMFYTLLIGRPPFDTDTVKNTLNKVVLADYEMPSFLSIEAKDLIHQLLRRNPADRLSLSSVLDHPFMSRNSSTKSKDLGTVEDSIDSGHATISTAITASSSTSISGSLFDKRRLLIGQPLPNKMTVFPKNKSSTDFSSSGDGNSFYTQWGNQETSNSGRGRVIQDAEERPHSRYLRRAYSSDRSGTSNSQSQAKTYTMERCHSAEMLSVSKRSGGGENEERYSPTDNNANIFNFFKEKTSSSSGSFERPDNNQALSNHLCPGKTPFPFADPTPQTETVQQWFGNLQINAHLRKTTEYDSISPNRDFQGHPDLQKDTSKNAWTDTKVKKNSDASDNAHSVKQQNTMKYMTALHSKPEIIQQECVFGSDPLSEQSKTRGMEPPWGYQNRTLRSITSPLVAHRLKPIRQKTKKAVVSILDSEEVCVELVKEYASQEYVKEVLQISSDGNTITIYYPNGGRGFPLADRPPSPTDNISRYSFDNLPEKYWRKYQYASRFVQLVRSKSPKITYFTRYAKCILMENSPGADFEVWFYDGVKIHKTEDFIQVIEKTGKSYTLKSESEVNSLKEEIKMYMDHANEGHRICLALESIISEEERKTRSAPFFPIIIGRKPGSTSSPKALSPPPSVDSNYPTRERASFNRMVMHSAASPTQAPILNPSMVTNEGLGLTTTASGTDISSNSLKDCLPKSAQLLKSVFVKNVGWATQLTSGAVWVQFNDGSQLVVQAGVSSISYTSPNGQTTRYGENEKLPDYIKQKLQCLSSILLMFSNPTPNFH"}, "FLT3(R834Q)": {"target": "FLT3(R834Q) (Homo sapiens, UniProt P36888, R834Q)"}, "OSR1": {"target": "T3, OSR1 (Homo sapiens, UniProt O95747)", "T3 construct": "gene OXSR1"}, "MERTK": {"target": "MERTK (Homo sapiens, UniProt Q12866)"}, "PRKG1": {"target": "PRKG1 (Homo sapiens, UniProt Q13976)"}, "CSNK2A2": {"target": "CSNK2A2 (Homo sapiens, UniProt P19784)"}, "FLT3(D835H)": {"target": "FLT3(D835H) (Homo sapiens, UniProt P36888, D835H)"}, "ALK": {"target": "ALK (Homo sapiens, UniProt Q9UM73)"}, "YANK2": {"target": "T4, YANK2 (Homo sapiens, UniProt Q9NY57)", "T4 construct": "gene STK32B"}, "IRAK1": {"target": "IRAK1 (Homo sapiens, UniProt P51617)"}, "SIK": {"target": "T5, SIK (Homo sapiens, UniProt P57059)", "T5 construct": "gene SIK1"}, "CDK5": {"target": "CDK5 (Homo sapiens, UniProt Q00535)"}, "TSSK3": {"target": "TSSK3 (Homo sapiens, UniProt Q96PN8)"}, "TRKA": {"target": "T6, TRKA (Homo sapiens, UniProt P04629)", "T6 construct": "gene NTRK1"}, "IKK-beta": {"target": "T7, IKK-beta (Homo sapiens, UniProt O14920)", "T7 construct": "gene IKBKB", "T7 sequence (O14920 whole entry)": "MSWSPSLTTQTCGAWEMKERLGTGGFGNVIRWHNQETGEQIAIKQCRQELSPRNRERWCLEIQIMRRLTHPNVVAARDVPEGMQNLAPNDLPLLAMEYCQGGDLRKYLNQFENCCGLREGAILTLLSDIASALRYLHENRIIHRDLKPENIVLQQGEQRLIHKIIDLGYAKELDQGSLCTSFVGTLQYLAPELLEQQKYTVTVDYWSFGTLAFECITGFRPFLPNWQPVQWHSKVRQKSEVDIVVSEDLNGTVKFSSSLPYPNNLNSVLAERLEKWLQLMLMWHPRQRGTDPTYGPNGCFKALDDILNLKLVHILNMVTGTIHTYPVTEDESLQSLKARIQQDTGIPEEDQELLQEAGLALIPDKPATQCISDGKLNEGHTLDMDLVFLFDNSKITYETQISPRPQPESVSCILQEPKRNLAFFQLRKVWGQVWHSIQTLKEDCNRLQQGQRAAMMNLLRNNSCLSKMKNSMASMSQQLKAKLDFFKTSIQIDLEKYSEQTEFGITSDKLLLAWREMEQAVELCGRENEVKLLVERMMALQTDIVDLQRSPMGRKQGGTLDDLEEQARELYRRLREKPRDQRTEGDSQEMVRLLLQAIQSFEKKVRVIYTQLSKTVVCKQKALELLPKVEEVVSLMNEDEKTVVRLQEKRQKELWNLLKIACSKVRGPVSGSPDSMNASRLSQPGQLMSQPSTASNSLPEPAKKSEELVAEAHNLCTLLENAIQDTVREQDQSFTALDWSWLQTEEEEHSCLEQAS"}, "MAP3K2": {"target": "MAP3K2 (Homo sapiens, UniProt Q9Y2U5)"}, "CDK9": {"target": "CDK9 (Homo sapiens, UniProt P50750)", "sequence (P50750 whole entry)": "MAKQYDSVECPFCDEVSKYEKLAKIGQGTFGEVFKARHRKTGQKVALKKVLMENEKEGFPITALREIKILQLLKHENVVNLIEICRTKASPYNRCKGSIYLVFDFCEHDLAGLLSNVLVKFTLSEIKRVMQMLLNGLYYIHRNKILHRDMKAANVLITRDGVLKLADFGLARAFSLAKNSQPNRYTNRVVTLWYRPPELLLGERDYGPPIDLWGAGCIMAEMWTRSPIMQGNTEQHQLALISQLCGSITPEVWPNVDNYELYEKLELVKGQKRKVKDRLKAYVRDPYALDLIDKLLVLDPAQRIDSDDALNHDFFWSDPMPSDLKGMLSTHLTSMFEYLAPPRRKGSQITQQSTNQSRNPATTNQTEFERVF"}, "EPHA5": {"target": "EPHA5 (Homo sapiens, UniProt P54756)"}, "MAST1": {"target": "MAST1 (Homo sapiens, UniProt Q9Y2H9)", "sequence (Q9Y2H9 whole entry)": "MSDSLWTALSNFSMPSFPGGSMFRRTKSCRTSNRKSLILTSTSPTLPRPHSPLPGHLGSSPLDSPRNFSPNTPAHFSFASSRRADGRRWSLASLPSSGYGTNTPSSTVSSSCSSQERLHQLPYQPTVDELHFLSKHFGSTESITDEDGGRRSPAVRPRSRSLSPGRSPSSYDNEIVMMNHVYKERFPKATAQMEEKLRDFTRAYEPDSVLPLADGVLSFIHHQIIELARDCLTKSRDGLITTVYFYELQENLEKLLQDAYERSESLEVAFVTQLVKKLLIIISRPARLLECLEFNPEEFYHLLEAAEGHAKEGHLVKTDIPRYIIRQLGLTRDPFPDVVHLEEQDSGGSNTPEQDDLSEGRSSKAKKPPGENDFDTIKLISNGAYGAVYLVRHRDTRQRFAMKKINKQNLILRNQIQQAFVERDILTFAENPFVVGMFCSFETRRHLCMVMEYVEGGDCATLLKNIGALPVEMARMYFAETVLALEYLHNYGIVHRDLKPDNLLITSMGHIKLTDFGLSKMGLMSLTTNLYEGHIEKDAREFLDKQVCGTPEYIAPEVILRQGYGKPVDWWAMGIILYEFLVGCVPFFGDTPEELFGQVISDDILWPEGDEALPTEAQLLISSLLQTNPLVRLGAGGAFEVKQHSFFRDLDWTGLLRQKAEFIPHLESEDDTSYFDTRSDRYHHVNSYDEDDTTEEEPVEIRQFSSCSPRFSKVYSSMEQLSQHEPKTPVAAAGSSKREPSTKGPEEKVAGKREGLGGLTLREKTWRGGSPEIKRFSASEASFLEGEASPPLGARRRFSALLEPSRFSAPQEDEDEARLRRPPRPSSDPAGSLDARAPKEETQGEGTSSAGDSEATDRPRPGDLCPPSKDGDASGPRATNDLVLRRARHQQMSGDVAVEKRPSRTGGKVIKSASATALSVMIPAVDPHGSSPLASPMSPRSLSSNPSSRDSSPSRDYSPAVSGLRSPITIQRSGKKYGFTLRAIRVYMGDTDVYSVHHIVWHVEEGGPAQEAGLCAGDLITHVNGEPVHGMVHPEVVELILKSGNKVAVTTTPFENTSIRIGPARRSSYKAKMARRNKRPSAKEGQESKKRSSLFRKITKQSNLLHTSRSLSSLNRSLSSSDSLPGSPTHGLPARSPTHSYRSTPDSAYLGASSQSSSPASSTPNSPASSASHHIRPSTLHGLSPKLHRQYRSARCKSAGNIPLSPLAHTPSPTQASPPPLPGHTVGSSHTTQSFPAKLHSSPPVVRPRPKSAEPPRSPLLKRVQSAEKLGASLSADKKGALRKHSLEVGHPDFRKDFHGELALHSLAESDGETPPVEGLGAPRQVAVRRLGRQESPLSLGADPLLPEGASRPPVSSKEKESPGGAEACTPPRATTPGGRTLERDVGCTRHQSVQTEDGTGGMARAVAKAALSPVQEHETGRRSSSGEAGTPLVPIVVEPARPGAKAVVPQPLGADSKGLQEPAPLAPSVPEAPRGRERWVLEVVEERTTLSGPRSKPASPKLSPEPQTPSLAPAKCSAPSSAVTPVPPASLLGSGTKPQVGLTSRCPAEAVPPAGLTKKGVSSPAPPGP"}, "MEK2": {"target": "T8, MEK2 (Homo sapiens, UniProt P36507)", "T8 construct": "gene MAP2K2", "T8 sequence (P36507 whole entry)": "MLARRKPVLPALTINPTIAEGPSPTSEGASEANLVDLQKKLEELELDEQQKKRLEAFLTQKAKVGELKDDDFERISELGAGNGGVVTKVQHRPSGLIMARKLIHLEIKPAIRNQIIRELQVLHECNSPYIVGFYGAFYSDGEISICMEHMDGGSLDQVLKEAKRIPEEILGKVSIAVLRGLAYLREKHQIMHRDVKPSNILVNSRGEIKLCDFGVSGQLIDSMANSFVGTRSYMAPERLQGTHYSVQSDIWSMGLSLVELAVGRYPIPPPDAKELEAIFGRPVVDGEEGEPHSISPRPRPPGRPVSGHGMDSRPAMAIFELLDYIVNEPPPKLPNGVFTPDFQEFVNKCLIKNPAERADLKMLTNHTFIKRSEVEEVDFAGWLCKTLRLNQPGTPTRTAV"}}}
{"smiles": "Cc1cnc2nc1Nc1cccc(c1)COCc1cc(ccc1OCCN1CCCC1)N2", "note": "[Compound 1]", "values": [{"measurement": "remaining binding at 0.1 µM", "setting": "ZAK", "value": 100, "unit": "%"}, {"measurement": "remaining binding at 0.1 µM", "setting": "SRMS", "value": 75, "unit": "%"}, {"measurement": "remaining binding at 0.1 µM", "setting": "PRKX", "value": 76, "unit": "%"}, {"measurement": "remaining binding at 0.1 µM", "setting": "RIOK3", "value": 79, "unit": "%"}, {"measurement": "remaining binding at 0.1 µM", "setting": "DLK", "value": 43, "unit": "%"}, {"measurement": "remaining binding at 0.1 µM", "setting": "PLK4", "value": 96, "unit": "%"}, {"measurement": "remaining binding at 0.1 µM", "setting": "FLT3(R834Q)", "value": 23, "unit": "%"}, {"measurement": "remaining binding at 0.1 µM", "setting": "OSR1", "value": 66, "unit": "%"}, {"measurement": "remaining binding at 0.1 µM", "setting": "MERTK", "value": 81, "unit": "%"}, {"measurement": "remaining binding at 0.1 µM", "setting": "PRKG1", "value": 100, "unit": "%"}, {"measurement": "remaining binding at 0.1 µM", "setting": "CSNK2A2", "value": 62, "unit": "%"}, {"measurement": "remaining binding at 0.1 µM", "setting": "FLT3(D835H)", "value": 46, "unit": "%"}, {"measurement": "remaining binding at 0.1 µM", "setting": "ALK", "value": 79, "unit": "%"}, {"measurement": "remaining binding at 0.1 µM", "setting": "YANK2", "value": 95, "unit": "%"}, {"measurement": "remaining binding at 0.1 µM", "setting": "IRAK1", "value": 31, "unit": "%"}, {"measurement": "remaining binding at 0.1 µM", "setting": "SIK", "value": 100, "unit": "%"}, {"measurement": "remaining binding at 0.1 µM", "setting": "CDK5", "value": 100, "unit": "%"}, {"measurement": "remaining binding at 0.1 µM", "setting": "TSSK3", "value": 78, "unit": "%"}, {"measurement": "remaining binding at 0.1 µM", "setting": "TRKA", "value": 26, "unit": "%"}, {"measurement": "remaining binding at 0.1 µM", "setting": "IKK-beta", "value": 97, "unit": "%"}, {"measurement": "remaining binding at 0.1 µM", "setting": "MAP3K2", "value": 50, "unit": "%"}, {"measurement": "remaining binding at 0.1 µM", "setting": "CDK9", "value": 99, "unit": "%"}, {"measurement": "remaining binding at 0.1 µM", "setting": "EPHA5", "value": 100, "unit": "%"}, {"measurement": "remaining binding at 0.1 µM", "setting": "MAST1", "value": 94, "unit": "%"}, {"measurement": "remaining binding at 0.1 µM", "setting": "MEK2", "value": 72, "unit": "%"}]}
